These results are taken from patent US4451448A, “1-Substituted tricyclic quinazolinones useful as tranquilizers” (Sandoz, Inc., priority 1982, dated 1984).

The assay concerns isolated calf brain benzodiazepine receptors. Nature of the assay: Flunitrazepam Receptor Binding Assay (FBA TEST No. 1), displacement of 3H-flunitrazepam. The following applies: compound at final concentration of 1×10^-6 M; calf caudate tissue; 1 µM.

Take `C=CCN1CCn2c1nc1ccc(Cl)cc1c2=O` [Example 1, 1-allyl-7-chloro-2,3-dihydro-imidazo[2,1-b]quinazolin-5(1H)-one]: the “percent specifically bound 3H-flunitrazepam compared to control” value is reported as 13 % of control.

Turning to `O=c1c2cc(Cl)ccc2nc2n1CCN2C1CCCC1` [Example 2, 7-chloro-1-cyclopentyl-2,3-dihydro-imidazo[2,1-b]quinazolin-5(1H)-one], the “percent specifically bound 3H-flunitrazepam compared to control” value is recorded as 19 % of control.
